Reference: US3996205A, “Aminoglycoside antibiotics and intermediates” (The Upjohn Company, priority 1975, dated 1976)

Legend:
S. hemolyticus UC 152 = assay: microplate test in BHI agar, S. hemolyticus UC 152; format: cell-based, Streptococcus hemolyticus; conditions: tested again (table 4), same conditions
Description: (§1) Compounds were also tested in a standard microplate test in Brain Heart Infusion (BHI) Agar, at a concentration of 1 mg/ml. Incubation is at 37° and end points are read at 20 hours. Brain Heart Infusion Agar (supplied by Difco Laboratories, Detroit, Michigan, U.S.A.) has the following composition:
(§2) Compounds (7β), (7α) and (9) were tested again along with compounds (11) and (14β) against a neamine control using the same conditions as given above.

P. rettgeri UC 339 = assay: microplate test in BHI agar, P. rettgeri UC 339; format: cell-based; conditions: table 4, same conditions
Description: as §1, §2

K. pneumoniae UC 58 = assay: microplate test in BHI agar, K. pneumoniae UC 58; format: cell-based; conditions: tested again (table 4), same conditions
Description: as §1, §2

S. typhi TG-3 = assay: microplate test in BHI agar, S. typhi TG-3; format: cell-based; conditions: table 4, same conditions
Description: as §1, §2

Structure (SMILES): NC[C@H]1O[C@H](O[C@H]2[C@H](O)[C@@H](O)[C@H](N)C[C@@H]2N)[C@H](N)[C@@H](O)[C@@H]1O [Neamine, neamine]
- Minimum Inhibitory Concentration (S. hemolyticus UC 152): 3.9 µg/mL
- Minimum Inhibitory Concentration (P. rettgeri UC 339): 1000 µg/mL
- Minimum Inhibitory Concentration (K. pneumoniae UC 58): 3.9 µg/mL
- Minimum Inhibitory Concentration (S. typhi TG-3): 15.6 µg/mL
